Measurements published in the NIST ThermoML archive (doi:10.1021/je900093h).
Numbers after ± are expanded uncertainties.

Experiment: molar heat capacity at saturation pressure
Settings: Vacuum adiabatic calorimetry

CCCCCCCCCC(=O)OCC [ethyl decanoate]
Settings	molar heat capacity [J/K/mol]
204.7 K, Crystal	251.8 ± 2
205.19 K, Crystal	252 ± 2
205.24 K, Crystal	252.1 ± 2
205.57 K, Crystal	252.3 ± 2
206.25 K, Crystal	253.2 ± 2.1
206.66 K, Crystal	253.6 ± 2.1
207.14 K, Crystal	254 ± 2.1
207.19 K, Crystal	254 ± 2.1
207.62 K, Crystal	254.3 ± 2.1
208.2 K, Crystal	255.2 ± 2.1
208.63 K, Crystal	255.4 ± 2.1
209.09 K, Crystal	255.7 ± 2.1
209.14 K, Crystal	255.7 ± 2.1
209.67 K, Crystal	256.4 ± 2.1
210.15 K, Crystal	257 ± 2.1
210.59 K, Crystal	257.3 ± 2.1
211.04 K, Crystal	257.6 ± 2.1
211.09 K, Crystal	257.8 ± 2.1
211.71 K, Crystal	258.4 ± 2.1
212.1 K, Crystal	259 ± 2.1
212.56 K, Crystal	259.1 ± 2.1
212.98 K, Crystal	259.7 ± 2.1
213.04 K, Crystal	259.7 ± 2.1
213.75 K, Crystal	260.3 ± 2.1
214.05 K, Crystal	261 ± 2.1
214.52 K, Crystal	261.2 ± 2.1
214.93 K, Crystal	261.7 ± 2.1
214.99 K, Crystal	261.6 ± 2.1
215.78 K, Crystal	262.5 ± 2.1
215.99 K, Crystal	263.2 ± 2.1
216.49 K, Crystal	263.3 ± 2.1
216.87 K, Crystal	263.9 ± 2.1
216.93 K, Crystal	263.7 ± 2.1
217.81 K, Crystal	264.8 ± 2.1
217.93 K, Crystal	265.3 ± 2.1
218.46 K, Crystal	265.4 ± 2.1
218.81 K, Crystal	266.1 ± 2.2
218.87 K, Crystal	265.9 ± 2.2
219.84 K, Crystal	267.1 ± 2.2
219.87 K, Crystal	267.5 ± 2.2
220.42 K, Crystal	267.6 ± 2.2
220.75 K, Crystal	268.4 ± 2.2
220.81 K, Crystal	268.3 ± 2.2
221.82 K, Crystal	269.7 ± 2.2
221.86 K, Crystal	269.6 ± 2.2
222.39 K, Crystal	270 ± 2.2
222.68 K, Crystal	270.8 ± 2.2
222.75 K, Crystal	270.5 ± 2.2
223.76 K, Crystal	272.3 ± 2.2
223.88 K, Crystal	272.1 ± 2.2
224.36 K, Crystal	272.5 ± 2.2
224.61 K, Crystal	273.3 ± 2.2
224.69 K, Crystal	272.9 ± 2.2
225.69 K, Crystal	274.9 ± 2.2
225.89 K, Crystal	274.9 ± 2.2
226.33 K, Crystal	275.1 ± 2.2
226.54 K, Crystal	276.1 ± 2.2
226.62 K, Crystal	275.6 ± 2.2
227.62 K, Crystal	277.6 ± 2.2
227.9 K, Crystal	277.8 ± 2.2
228.29 K, Crystal	277.8 ± 2.2
228.46 K, Crystal	278.4 ± 2.3
228.54 K, Crystal	278.3 ± 2.3
229.55 K, Crystal	280.1 ± 2.3
229.89 K, Crystal	280.6 ± 2.3
230.26 K, Crystal	280.8 ± 2.3
230.47 K, Crystal	280.9 ± 2.3
232.23 K, Crystal	284 ± 2.3
232.58 K, Crystal	284.3 ± 2.3
234.19 K, Crystal	287.3 ± 2.3
234.97 K, Crystal	289 ± 2.3
236.16 K, Crystal	291.1 ± 2.4
237.29 K, Crystal	294.1 ± 2.4
238.11 K, Crystal	296.8 ± 2.4
239.59 K, Crystal	301 ± 2.4
240.07 K, Crystal	303 ± 2.5
241.85 K, Crystal	310.4 ± 2.5
244.07 K, Crystal	325.4 ± 2.6
246.21 K, Crystal	353.6 ± 2.9
254.4 K, Liquid	386.7 ± 3.1
255.37 K, Liquid	387 ± 3.1
256.65 K, Liquid	387.2 ± 3.1
257.1 K, Liquid	387.4 ± 3.1
257.94 K, Liquid	387.5 ± 3.1
258.76 K, Liquid	387.7 ± 3.1
259.18 K, Liquid	387.9 ± 3.1
260.12 K, Liquid	388.2 ± 3.1
260.59 K, Liquid	388.3 ± 3.1
261.71 K, Liquid	388.7 ± 3.1
262.29 K, Liquid	388.9 ± 3.1
262.56 K, Liquid	388.9 ± 3.1
264.24 K, Liquid	389.3 ± 3.1
264.47 K, Liquid	389.5 ± 3.1
264.54 K, Liquid	389.4 ± 3.1
266.52 K, Liquid	390 ± 3.1
266.65 K, Liquid	390.1 ± 3.1
266.77 K, Liquid	390.1 ± 3.1
268.5 K, Liquid	390.8 ± 3.2
268.83 K, Liquid	390.8 ± 3.2
269.31 K, Liquid	391 ± 3.2
270.48 K, Liquid	391.6 ± 3.2
271.01 K, Liquid	391.6 ± 3.2
271.84 K, Liquid	391.9 ± 3.2
272.46 K, Liquid	392.3 ± 3.2
273.19 K, Liquid	392.4 ± 3.2
274.38 K, Liquid	392.9 ± 3.2
274.44 K, Liquid	393 ± 3.2
275.37 K, Liquid	393.2 ± 3.2
276.42 K, Liquid	393.8 ± 3.2
276.91 K, Liquid	394 ± 3.2
277.55 K, Liquid	394.1 ± 3.2
278.4 K, Liquid	394.5 ± 3.2
279.45 K, Liquid	394.9 ± 3.2
279.73 K, Liquid	394.9 ± 3.2
280.38 K, Liquid	395.3 ± 3.2
281.91 K, Liquid	396 ± 3.2
281.98 K, Liquid	396.1 ± 3.2
282.36 K, Liquid	396.2 ± 3.2
284.09 K, Liquid	396.8 ± 3.2
284.34 K, Liquid	397.1 ± 3.2
284.52 K, Liquid	397.2 ± 3.2
286.27 K, Liquid	397.8 ± 3.2
286.32 K, Liquid	397.8 ± 3.2
287.05 K, Liquid	398.3 ± 3.2
288.3 K, Liquid	398.7 ± 3.2
288.45 K, Liquid	398.8 ± 3.2
289.59 K, Liquid	399.4 ± 3.2
290.28 K, Liquid	399.7 ± 3.2
290.63 K, Liquid	399.9 ± 3.2
292.13 K, Liquid	400.5 ± 3.2
292.26 K, Liquid	400.7 ± 3.2
292.81 K, Liquid	401 ± 3.2
294.23 K, Liquid	401.6 ± 3.2
294.66 K, Liquid	401.8 ± 3.2
294.99 K, Liquid	401.9 ± 3.2
296.21 K, Liquid	402.5 ± 3.2
297.17 K, Liquid	403.1 ± 3.3
297.19 K, Liquid	403 ± 3.3
298.19 K, Liquid	403.4 ± 3.3
299.72 K, Liquid	404.3 ± 3.3
300.16 K, Liquid	404.4 ± 3.3
302.14 K, Liquid	405.5 ± 3.3
302.25 K, Liquid	405.6 ± 3.3
304.12 K, Liquid	406.5 ± 3.3
304.78 K, Liquid	406.9 ± 3.3
306.09 K, Liquid	407.7 ± 3.3
307.31 K, Liquid	408.3 ± 3.3
308.07 K, Liquid	408.7 ± 3.3
309.83 K, Liquid	409.6 ± 3.3
310.05 K, Liquid	409.6 ± 3.3
312.02 K, Liquid	410.7 ± 3.3
312.36 K, Liquid	411 ± 3.3
314 K, Liquid	411.8 ± 3.3
314.88 K, Liquid	412.3 ± 3.3
315.98 K, Liquid	412.8 ± 3.3
317.41 K, Liquid	413.8 ± 3.3
317.96 K, Liquid	414 ± 3.3
319.93 K, Liquid	415 ± 3.3
319.94 K, Liquid	415 ± 3.3
321.92 K, Liquid	416.3 ± 3.4
322.45 K, Liquid	416.4 ± 3.4
323.9 K, Liquid	417.2 ± 3.4
324.96 K, Liquid	417.7 ± 3.4
325.88 K, Liquid	418.2 ± 3.4
327.48 K, Liquid	419.3 ± 3.4
327.86 K, Liquid	419.2 ± 3.4
329.84 K, Liquid	420.3 ± 3.4
330 K, Liquid	420.6 ± 3.4
331.82 K, Liquid	421.5 ± 3.4
332.51 K, Liquid	422 ± 3.4
333.8 K, Liquid	422.7 ± 3.4
335.02 K, Liquid	423.5 ± 3.4
335.78 K, Liquid	424 ± 3.4
337.54 K, Liquid	424.9 ± 3.4
337.76 K, Liquid	425.1 ± 3.4
339.74 K, Liquid	426.2 ± 3.4
340.05 K, Liquid	426.4 ± 3.4
341.72 K, Liquid	427.3 ± 3.4
342.56 K, Liquid	428 ± 3.5
343.7 K, Liquid	428.7 ± 3.5
345.06 K, Liquid	429.5 ± 3.5
345.68 K, Liquid	429.8 ± 3.5
347.57 K, Liquid	430.9 ± 3.5
347.66 K, Liquid	431 ± 3.5
349.64 K, Liquid	432.2 ± 3.5
350.07 K, Liquid	432.4 ± 3.5
351.62 K, Liquid	433.3 ± 3.5
352.57 K, Liquid	433.9 ± 3.5
353.61 K, Liquid	434.3 ± 3.5
355.06 K, Liquid	435.2 ± 3.5
355.59 K, Liquid	435.6 ± 3.5
357.56 K, Liquid	436.8 ± 3.5
357.57 K, Liquid	436.8 ± 3.5
359.55 K, Liquid	438 ± 3.5
360.05 K, Liquid	438.2 ± 3.5
362.54 K, Liquid	439.8 ± 3.5
365.03 K, Liquid	441.4 ± 3.6
367.52 K, Liquid	443 ± 3.6
